According to publication PMC7934871 (JCI Insight, 2021):
Non-standard residues stand in square brackets, D forms with d. No end group written: not given here. pY = N[C@@H](Cc1ccc(OP(=O)(O)O)cc1)C(=O)O

What was measured:
[1] = system: B16 melanoma; test: B16 melanoma lung metastasis in C57BL/6 mice; type: in vivo, mouse
Text: Figure 7 PS-acet.-STAT3 peptide treatment efficiently reduces mouse melanoma lung metastasis. (A) Systemic PS-acet.-STAT3 peptide treatment reduces B16 lung nodules in syngeneic mouse model compared with control treatments. The B16 lung nodules in mice treated with the indicated STAT3 peptides and vehicle (n = 5) were visualized by IF staining of gp100 and quantified by confocal microscopy and Zen software. The levels of phosphorylation of STAT3 (p-STAT3), CD69, and Foxp3 in the tumor or tumor-infiltrating CD8^+ T or CD4^+ T cells were detected by IF staining followed by confocal microscopy in B16 metastatic lung nodules upon treatments with vehicle, PO- or PS-acet.-STAT3, PS-STAT3-K685R, or PS-unacet.-STAT3 peptides as indicated. Images are representative of 5 lungs per experimental group. Scale bars: 20 μm (CD69, CD8, CD4, p-STAT3, and Foxp3) and 100 μm (gp100). White arrows indicate the immune cells. Insets: original magnification, ×40. (B) The graphs show the quantification of gp100 and p-STAT3 expression levels (MFI) or the cell population (%) of CD69^+ in CD8^+ or p-STAT3^+ in CD4^+ or Foxp3^+ in CD4^+ (data represent 5 lungs per group, n = 5). SD is shown. One-way ANOVA; ****P < 0.001.
(§1) Mouse care and experimental procedures were performed under pathogen-free conditions in accordance with established institutional guidance and approved IACUC protocols from Research Animal Care Committee of the City of Hope. For s.c. tumor challenge, 5 × 10^6 HCT116 cells were injected into NSG mice from The Jackson Laboratory or animal resource core facility at the City of Hope. After tumors reached an average size of 80~100 mm^3, mice were locally or intravenously treated with 1 mg/kg of PO- or PS-peptides (Anaspec) every day or every other day. Control animals were treated with the equal volume of HBSS (Invitrogen, Thermo Fisher Scientific). Tumor growth was measured by a digital caliper every other day. To study the effects of the modified peptides at protein and gene levels, mice were euthanized 4–6 weeks after tumor injection. B16 melanoma lung metastasis was performed by injecting 0.5 × 10^6 B16 cells into bloodstream of C57BL/6 mice (The Jackson Laboratory). One day after tumor challenge, mice were treated intravenously (retro-orbitally) with 1 mg/kg of PO- or PS-acet.-STAT3, PS-unacet.-STAT3, or PS-STAT3-K685R peptides every other day until the endpoint as indicated. Control mice were treated with HBSS. Lungs were excised from the mice, and B16 nodules were visualized by gp100 staining. Lungs were then analyzed for immune responses by immunostaining followed by confocal imaging. For mouse PDAC model, 5 × 10^6 KPC mouse cells were mixed with Matrigel and subcutaneously injected into C57BL/6 mice (The Jackson Laboratory). After tumors reached an average size of 80~100 mm^3, mice were intravenously treated with 1 mg/kg of PO- or PS-Gp130, PS-oligo, PS-SC-MYC, PS-MYC. or combined PS-Gp130/PS-MYC (0.5 mg/kg, 0.5 mg/kg) (Anaspec) every other day for 18 days. Control animals were treated with the equal volume of HBSS (Invitrogen, Thermo Fisher Scientific). Tumor growth was measured by a digital caliper every other day. To study the effects of the modified peptides at protein and gene levels, mice were euthanized at the endpoint as indicated.

[2] = system: KPC mouse PDAC cells; test: KPC mouse PDAC tumor model in C57BL/6 mice; type: in vivo; details: KPC s.c. in C57BL/6 mice, i.v. 1 mg/kg every other day for 18 days (combination 0.5 mg/kg each), n = 5
Protocol: SD is shown. […] SD is shown.
as §1, with “Control mice were treated with HBSS. Lungs were excised from the mice, and B16 nodules were visualized by gp100 staining.” left out, “For mouse PDAC model, 5 × 10^6 KPC mouse cells were mixed with Matrigel and subcutaneously injected into C57BL/6 mice (The Jackson Laboratory). After tumors reached an average size of 80~100 mm^3, mice were intravenously treated with 1 mg/kg of PO- or PS-Gp130, PS-oligo, PS-SC-MYC, PS-MYC. or combined PS-Gp130/PS-MYC (0.5 mg/kg, 0.5 mg/kg) (Anaspec) every other day for 18 days. Control animals were treated with the equal volume of HBSS (Invitrogen, Thermo Fisher Scientific).” left out, “To study the effects of the modified peptides at protein and gene levels, mice were euthanized at the endpoint as indicated.” left out

Substance | metastatic lung nodules ([1]; B16 i.v. in C57BL/6 mice, 1 mg/kg i.v. every other day, gp100 staining, n = 5) | STAT3 activation (p-STAT3) in tumor cells and CD4+ T cells ([1]; B16 lung nodules, IF staining, confocal) | infiltration of CD69+ activated CD8+ T cells in metastatic B16 lung nodules ([1]; IF staining, confocal) | tumor-associated FoxP3+CD4+ T cells (regulatory T cells) ([1]; IF staining, confocal) | PDAC tumor growth [2]
PDIPKEEAFGK685(Ac)YCRPESQEHPC-linker-T*C*C*A*T*G*A*G*C*T*T*C*C*T*G*A*T*G*C*T [PS-acet.-STAT3 peptide] | striking reduction | significantly decreased | increased | concomitantly reduced | 
PS-Gp130: PS-conjugated Gp130 peptide (amino acids 901–910) with phospho-Tyr905 (MPKS[pY]LPQTV; also: phosphorothioate oligonucleotide conjugate; UniProt P40189 901-910, looked up, fragment) |  |  |  |  | significantly inhibited
